Assay results as given in PubChem BioAssay AID192 (DTP/NCI, 2004).
“And” between values parts separate entries of the source, which are not always exact repeats. Equal values may be shown once. Toxic doses and inconclusive results are not listed. Rule for the calls: active = survival T/C of 150% or more; inactive = T/C below 125% in these data.

System: BDF1 mice, B16 melanoma ip, median survival T/C
Assay: NCI In Vivo Anticancer Drug Screen. Data for tumor model B16 Melanoma (intraperitoneal) in B6D2F1 (BDF1) mice
Details: endpoint: median survival time, higher = longer survival
Method in brief: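 Vehicle-treated animals serve as the reference (C); treated animals (T) are scored for survival or tumor size after tumor transplantation.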

[1] = dose: 25.0 mg/kg/injection, schedule: Q01DX009 (ip), vehicle: saline
[2] = dose: 50.0 mg/kg/injection, schedule: Q01DX009 (ip), vehicle: saline
[3] = dose: 50.0 mg/kg/injection, schedule: Q01DX009 (ip), vehicle: Klucel (hydroxypropylcellulose) (HPC)
[4] = dose: 100.0 mg/kg/injection, schedule: Q01DX009 (ip), vehicle: Klucel (hydroxypropylcellulose) (HPC)
[5] = dose: 100.0 mg/kg/injection, schedule: Q01DX009 (ip), vehicle: saline
[6] = dose: 200.0 mg/kg/injection, schedule: Q01DX009 (ip), vehicle: Klucel (hydroxypropylcellulose) (HPC)
[7] = dose: 400.0 mg/kg/injection, schedule: Q01DX009 (ip), vehicle: Klucel (hydroxypropylcellulose) (HPC)

Measured: T/C

O=C(O)CC(NCc1ccccc1)C(=O)O (stereo unspecified)
inactive: dose: 100.0 mg/kg/injection, schedule: Q01DX009 (ip), vehicle: saline with Tween-80 97 % of control | dose: 200.0 mg/kg/injection, schedule: Q01DX009 (ip), vehicle: saline with Tween-80 102 % of control | dose: 400.0 mg/kg/injection, schedule: Q01DX009 (ip), vehicle: saline with Tween-80 100 % of control

FC(F)(F)c1ccc2c(c1)N(CCCN1CCN(CC[n+]3ccccc3)CC1)c1ccccc1S2
inactive: dose: 1.25 mg/kg/injection, schedule: Q01DX009 (ip), vehicle: saline 100 % of control | dose: 2.5 mg/kg/injection, schedule: Q01DX009 (ip), vehicle: saline 105 % of control | dose: 5.0 mg/kg/injection, schedule: Q01DX009 (ip), vehicle: saline 105 % of control and 107 % of control | dose: 10.0 mg/kg/injection, schedule: Q01DX009 (ip), vehicle: saline 89 % of control and 97 % of control

CC1CC(C)OS(=O)O1 (stereo unspecified)
inactive: dose: 12.5 mg/kg/injection, schedule: Q01DX009 (ip), vehicle: saline sonified 108 % of control | dose: 25.0 mg/kg/injection, schedule: Q01DX009 (ip), vehicle: saline sonified 100 % of control | dose: 50.0 mg/kg/injection, schedule: Q01DX009 (ip), vehicle: saline sonified 100 % of control

CCC(=O)c1ccc2c(c1)N(C(C)CN(C)C)c1ccccc1S2 (stereo unspecified)
inactive: dose: 12.5 mg/kg/injection, schedule: Q01DX009 (ip), vehicle: saline 120 % of control | [1] 110 % of control | [2] 105 % of control

CCC(C)C(C#N)(CCN(CC)CC)c1ccccc1 (stereo unspecified)
inactive: dose: 25.0 mg/kg/injection, schedule: Q01DX009 (ip), vehicle: Klucel (hydroxypropylcellulose) (HPC) 121 % of control | [3] 118 % of control | [4] 109 % of control

CN(C)CCCC#N
inactive: [1] 100 % of control | [2] 100 % of control | [5] 100 % of control

CC1CNC(=O)O1 (stereo unspecified)
inactive: [1] 104 % of control | [2] 100 % of control | [5] 100 % of control | dose: 200.0 mg/kg/injection, schedule: Q01DX009 (ip), vehicle: saline 92 % of control | dose: 400.0 mg/kg/injection, schedule: Q01DX009 (ip), vehicle: saline 97 % of control

OCCN1CCCN(CCCN2c3ccccc3Sc3ccc(C(F)(F)F)cc32)CC1
inactive: dose: 0.14 mg/kg/injection, schedule: Q04DX003 (ip), vehicle: saline 108 % of control | dose: 0.29 mg/kg/injection, schedule: Q04DX003 (ip), vehicle: saline 100 % of control | dose: 0.58 mg/kg/injection, schedule: Q01DX009 (ip), vehicle: saline 98 % of control | dose: 0.58 mg/kg/injection, schedule: Q04DX003 (ip), vehicle: saline 99 % of control | dose: 1.17 mg/kg/injection, schedule: Q01DX009 (ip), vehicle: saline 98 % of control | dose: 1.17 mg/kg/injection, schedule: Q04DX003 (ip), vehicle: saline 104 % of control | dose: 2.34 mg/kg/injection, schedule: Q01DX009 (ip), vehicle: saline 96 % of control | dose: 2.34 mg/kg/injection, schedule: Q04DX003 (ip), vehicle: saline 105 % of control and 116 % of control | dose: 4.68 mg/kg/injection, schedule: Q01DX009 (ip), vehicle: saline 90 % of control | dose: 4.68 mg/kg/injection, schedule: Q04DX003 (ip), vehicle: saline 122 % of control | dose: 9.37 mg/kg/injection, schedule: Q04DX003 (ip), vehicle: saline 119 % of control

CC(=O)CC(=O)Nc1ccc(C(=O)O)c(O)c1
inactive: [4] 86 % of control | [6] 89 % of control

Cc1ccc(N=C(c2ccc([N+](=O)[O-])cc2)c2ccc([N+](=O)[O-])cc2)cc1
inactive: [4] 111 % of control | [6] 97 % of control | [7] 91 % of control

O=C(O)C1CCCCC1C(=O)Nc1ccc(Cl)cc1 (stereo unspecified)
inactive: [3] 114 % of control | [4] 105 % of control | [6] 107 % of control

CCCCCCCC(=O)CCCC
inactive: [4] 106 % of control | [6] 106 % of control | [7] 94 % of control
